The text below walks through data of paper PMC11022729 (Advanced Science, 2024).

Series [1] addresses T1, human D3 receptor (Homo sapiens, UniProt P35462).
T1 construct: expressed in transfected cells; host or cells: CHO
Put plainly: [3H]-spiperone competition binding assay, D3. As to conditions: mean [CI 95%]. As to the method: (§1) CHO cells stably expressing human dopamine D2short (D2R) and D3 receptor (D3R) were washed and harvested using PBS. […] The cell membrane homogenate was centrifuged (20 000 × g, 20 min, 4 °C), and the resulting cell pellet was resuspended in the binding buffer. Crude membrane extracts were kept at −80 °C until use. Before starting the experiments, cell membranes were thawed, homogenized by sonication (3 × 10 s), and stored in an ice‐cold binding buffer. […] Assays were performed at least in triplicate with appropriate concentrations ranging from 0.01 nM to 100 µM of the test compound. Non‐specific binding was determined using 10 µM haloperidol. By filtering through GF/B filters pretreated with 0.3% (m/v) polyethyleneimine, the bound radioligand was separated from free radioligand using a cell harvester. Radioactivity was measured using liquid scintillation counting. Data were evaluated using the GraphPad Prism 9 software (San Diego, CA, USA) with a nonlinear regression fit.

For series [2], the target named is T2, human D2S receptor (Homo sapiens, UniProt P14416).
T2 construct: expressed in transfected cells; host or cells: CHO
In words: [3H]-spiperone competition binding assay, D2. As to conditions: mean [CI 95%]. The method, then: as §1

Series [3] addresses T3, human Slack (Homo sapiens, UniProt Q5JUK3).
T3 construct: host or cells: HEK293
T3 sequence (Q5JUK3 1-1230): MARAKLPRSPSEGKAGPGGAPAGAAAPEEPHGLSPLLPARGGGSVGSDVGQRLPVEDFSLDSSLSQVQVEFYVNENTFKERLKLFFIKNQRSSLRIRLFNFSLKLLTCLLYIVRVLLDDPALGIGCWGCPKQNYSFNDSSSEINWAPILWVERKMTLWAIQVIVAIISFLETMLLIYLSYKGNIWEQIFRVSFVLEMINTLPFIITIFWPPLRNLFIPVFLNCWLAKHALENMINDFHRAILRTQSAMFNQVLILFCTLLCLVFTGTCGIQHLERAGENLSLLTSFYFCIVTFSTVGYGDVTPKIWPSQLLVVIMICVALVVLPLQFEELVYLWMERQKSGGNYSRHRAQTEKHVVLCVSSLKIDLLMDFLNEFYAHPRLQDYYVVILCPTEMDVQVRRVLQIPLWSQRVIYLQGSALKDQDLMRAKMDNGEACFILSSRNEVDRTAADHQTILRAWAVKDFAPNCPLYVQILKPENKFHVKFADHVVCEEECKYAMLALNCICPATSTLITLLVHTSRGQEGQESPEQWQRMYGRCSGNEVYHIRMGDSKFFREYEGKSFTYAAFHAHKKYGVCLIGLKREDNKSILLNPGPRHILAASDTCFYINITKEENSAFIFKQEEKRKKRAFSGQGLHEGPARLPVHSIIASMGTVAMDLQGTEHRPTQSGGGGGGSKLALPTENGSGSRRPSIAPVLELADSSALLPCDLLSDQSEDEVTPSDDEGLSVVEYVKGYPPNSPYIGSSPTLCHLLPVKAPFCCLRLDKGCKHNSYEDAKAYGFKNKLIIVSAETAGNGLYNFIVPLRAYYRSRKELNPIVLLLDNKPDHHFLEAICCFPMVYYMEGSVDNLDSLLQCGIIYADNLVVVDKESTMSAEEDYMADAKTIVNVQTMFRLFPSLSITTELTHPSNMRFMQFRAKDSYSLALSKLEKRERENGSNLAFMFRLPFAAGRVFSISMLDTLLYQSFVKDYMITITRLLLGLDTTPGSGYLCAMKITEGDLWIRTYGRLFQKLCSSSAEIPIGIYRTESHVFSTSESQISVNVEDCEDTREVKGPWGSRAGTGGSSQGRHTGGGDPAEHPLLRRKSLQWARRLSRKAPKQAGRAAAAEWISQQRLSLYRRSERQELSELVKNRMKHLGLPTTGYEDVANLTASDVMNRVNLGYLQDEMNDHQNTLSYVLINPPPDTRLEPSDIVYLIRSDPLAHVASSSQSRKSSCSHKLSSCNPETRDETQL
In words: FluxOR potassium ion channel assay in HEK-Slack cells. It is filed as cell-based. To be noted: for EC50: HEK-Slack cells, Na+-free assay buffer, mean (95% confidence interval). The method, then:
The functional activity of this series of compounds against human Slack was determined using a cell‐based FluxOR potassium ion channel assay in cultured HEK293 cells stably expressing human Slack (herein referred to as HEK‐Slack cells) and a Na^+‐free assay buffer to prevent compound‐independent Slack activation by monovalent cations.^[ [14], [24] ^] […] Of the 114 newly synthesized compounds, 31 acted as Slack activators to varying extents. Accordingly, we deemed eight of these as the most interesting candidates.
To determine the Slack‐activating efficacy and potency of the novel compounds, a commercial FluxOR potassium ion channel assay (#10 017; Invitrogen) was used. HEK‐Slack cells were plated at a density of 50 000 cells per well on a poly‐D‐lysine coated (75 µg mL^−1, Sigma–Aldrich) 96‐well, black‐walled microplate with clear bottom (#655 090; Greiner Bio‐One) in DMEM (100 µL per well) containing 10% FBS and 1% penicillin/streptomycin 24 h prior to assaying. In the initial experiments shown in Figure S3A–F (Supporting Information), HEK‐Slack cells were plated at a density of 100 000 cells/well 48 h prior to the assay. On the day of the experiment, the cells were loaded with FluxOR dye according to the manufacturer's protocol. A Na^+‐free assay buffer, adjusted to pH 7.4 with KOH, containing 140 mM choline chloride, 5 mM KCl, 2 mM CaCl2, 2 mM MgSO4, 10 mM HEPES, and 5.55 mM glucose was used. To reduce background fluorescence, all assay components were complemented with a 10% BackDrop Background Suppressor (#B10511; Invitrogen).
All compounds were prepared as a 333 mM stock in DMSO and diluted on the experimental day to a final concentration of 100, 50, 25, 12.5, 6.25, 3.125, or 1.5625 µM in an assay buffer with DMSO adjusted to 0.03%. Before treatment, the cells were washed, and the medium was exchanged for the assay buffer. In a total volume of 90 µL per well, the cells were then incubated for 30 min at 37 °C with compounds at the indicated concentrations, or 0.03% DMSO alone as the vehicle. […] Fluorescence was measured using an Infinite M200 microplate reader (Tecan) with excitation at 485 nm (9 nm bandwidth) and emission at 525 nm (20 nm bandwidth) in the bottom read mode. First, the baseline fluorescence of the individual wells was established. Thereafter cells were stimulated with 20 µL Tl2SO4 (5 mM) solution injected at 100 µL s^−1, and fluorescence was further recorded for 100 s. Assays were run in triplicate. For all time points, the ratio of fluorescence to baseline fluorescence was calculated first for individual wells, and the average was then used.
Dose‐response curves comprising six concentrations were obtained in triplets using fluorescence/fluorescenceBaseline ratios at the 100th s.

The subject of series [4] is HEK293 cells. In words: Live-cell high-content cytotoxicity multiplex assay. To be noted: 100 µM, 6 h. The series is classed as cell-based. As to the method: To explore whether the compounds affected general cell functions, we performed a live‐cell high‐content assay that allowed for the simultaneous investigation of cellular viability, compound precipitation, and maintenance of membrane integrity and mitochondrial mass.^[ [25] ^]
To assess cell viability, a live cell high‐content screen was performed in HEK293T cells as described previously.^[ [25] ^] In brief, HEK293T cells (ATCC CRL‐1573) were cultured in DMEM plus L‐glutamine (high glucose) supplemented by 10% FBS (Gibco) and penicillin/streptomycin (Gibco). Cells were seeded at a density of 1500 cells/well in 384 well plates in culture medium (cell culture microplate, PS, f‐bottom, µClear, 781 091; Greiner). Cells were stained simultaneously with 60 nM Hoechst33342 (Thermo Scientific), 75 nM Mitotracker red (Invitrogen), 0.3 µL per well annexin V Alexa Fluor 680 conjugate (Invitrogen), and 25 nL per well BioTracker 488 green microtubule cytoskeleton dye (EMD Millipore). The fluorescence and cellular shape were measured after 6 h of compound exposure using a CQ1 high‐content confocal microscope (Yokogawa). […] Images were analyzed using the CellPathfinder software (Yokogawa). Cells were detected and gated in different cell populations as described previously^[ [47] ^] using a machine learning‐based algorithm. Briefly, compound precipitation was detected as Hoechst high‐intensity objects. […]

Series [5] is described as follows: Metabolic stability assay in rat liver microsomes. It is filed as in vitro ADME. As to conditions: 10 µM, 15, 30 and 60 min. As to the method: We next assessed the metabolic stability of these compounds (10 µM) in rat liver microsomes (Figure 2A). […] Therefore, we assumed that the occupation of metabolically labile sites at the aromatic core and the reduction in electron density at the oxidizable nitrogen atom of the piperazine ring might increase metabolic stability. Indeed, both the introduction of fluorine at R^2 and the introduction of an electron‐withdrawing carboxylic acid linker at R^3 improved metabolic stability. The substitution of chlorine with a trifluoromethyl group at R^1 was also beneficial. In contrast, homopiperazine and hydroxy linkers were metabolically labile.
The solubilized test compound (5 µL, final concentration 10 µM) was preincubated at 37 °C in 432 µL phosphate buffer (0.1 M, pH 7.4) together with 50 µL NADPH regenerating system (30 mM glucose‐6‐phosphate, 4 U mL^−1 glucose 6‐phosphate dehydrogenase, 10 mM NADP, and 30 mM MgCl2). After 5 min, the reaction started upon the addition of 13 µL of microsome mix from the liver of Sprague‐Dawley rats (Invitrogen; 20 mg protein per mL in 0.1 M phosphate buffer) in a shaking water bath at 37 °C. The reaction was stopped by adding 500 µL ice‐cold methanol at 0, 15, 30, and 60 min. The samples were centrifuged at 5000 × g for 5 min at 4 °C and the test compound was quantified from the supernatants by HPLC; the composition of the mobile phase was adapted to the test compound in a range of MeOH 40−90% and water (0.1% formic acid) 10−60%. Flow rate: 1 mL min^−1; stationary phase: Purospher STAR, RP18, 5 µm, 125 × 4; precolumn: Purospher STAR, RP18, 5 µm, 4 × 4; detection wavelength: 254 and 280 nm; injection volume: 50 µL. Control samples were used to evaluate the stability of the test compounds in the reaction mixture. The first control was without NADPH, which is needed for the enzymatic activity of the microsomes, the second control was with inactivated microsomes (incubated for 20 min at 90 °C), and the third control was without the test compound (to determine the baseline). The amounts of test compounds were quantified using an external calibration curve.
On the technique in general: Liver microsomes are a subcellular fraction often used to study metabolism.

Series [6] has as its system mice. In words: Pulse oximetry in conscious, freely moving mice. As to conditions: 10 mg kg−1 i.p., observation period of 30 min. As to the method:
To measure cardiovascular function, a pulse oximeter (MouseOX Plus, Starr Life Sciences Corp.) was used in conscious, freely moving mice. After three consecutive days of habituating the mice to the collar clip for at least 30 min, baseline measurements were performed. […] All the datasets were sampled at 1 Hz, error‐corrected according to the manufacturer's instructions, and averaged over 300 s for each time point.

What is called Ki is a dissociation constant, usually derived from enzyme kinetics or from competition with a known ligand. Read a high Ki as lower affinity. The term Emax denotes the maximal effect, on the per cent scale that the assay sets. In general, EC50 refers to the concentration that produces a half-maximal response.

Counter-ions that a name gives are not always drawn.

T1 sequence (P35462 whole entry): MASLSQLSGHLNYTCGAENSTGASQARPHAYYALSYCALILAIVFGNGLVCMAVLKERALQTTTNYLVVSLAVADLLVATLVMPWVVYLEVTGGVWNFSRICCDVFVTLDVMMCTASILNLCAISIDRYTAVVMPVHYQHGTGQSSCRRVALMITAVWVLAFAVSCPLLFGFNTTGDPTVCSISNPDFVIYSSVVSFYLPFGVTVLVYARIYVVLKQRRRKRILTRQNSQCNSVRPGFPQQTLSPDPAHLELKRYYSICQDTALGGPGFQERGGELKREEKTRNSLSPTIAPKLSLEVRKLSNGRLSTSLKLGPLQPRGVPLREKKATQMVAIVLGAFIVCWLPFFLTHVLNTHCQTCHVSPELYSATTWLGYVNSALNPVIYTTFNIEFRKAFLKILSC
T2 sequence (P14416 1-414 isoform P14416-2): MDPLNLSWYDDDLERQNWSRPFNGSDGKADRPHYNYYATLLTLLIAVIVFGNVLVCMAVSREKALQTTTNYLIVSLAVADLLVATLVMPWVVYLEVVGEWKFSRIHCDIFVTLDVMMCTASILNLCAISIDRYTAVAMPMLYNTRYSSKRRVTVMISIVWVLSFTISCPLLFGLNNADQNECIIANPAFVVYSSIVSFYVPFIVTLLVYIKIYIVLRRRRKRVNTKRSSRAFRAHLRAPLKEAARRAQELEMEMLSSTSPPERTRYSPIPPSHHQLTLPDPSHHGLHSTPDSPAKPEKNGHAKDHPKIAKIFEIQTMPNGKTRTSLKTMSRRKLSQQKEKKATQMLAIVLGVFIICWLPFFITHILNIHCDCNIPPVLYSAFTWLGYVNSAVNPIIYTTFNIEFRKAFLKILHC

Regarding `CN1CCN(C2=Nc3ccccc3Oc3ccc(C(F)(F)F)cc32)CC1` [Compound 1], the Ki in series [1] was 12.2 nM. Besides, the affinity in series [2], expressed as Ki, was 3.6 nM. In series [3], this molecule yielded an Emax of 114% and an EC50 of 6300 nM. In addition, the compound precipitation result in series [4] is recorded as “compound precipitation was only detected”.

Take `CN1CCCN(C2=Nc3ccccc3Oc3ccc(C(F)(F)F)cc32)CC1` [Compound 2]: the Ki in series [1] was found to be 62.4 nM. The molecule also returned a Ki in series [2] of 82.8 nM. In series [3], the Emax is 63.1% and the EC50 amounted to 3200 nM.

Molecule `CN1CCN(C2=Nc3cc(F)ccc3Oc3ccc(C(F)(F)F)cc32)CC1` [Compound 3] had a Ki in series [1] of 22.6 nM. The molecule also had a Ki in series [2] of 2.89 nM. In addition, in series [3], the Emax was found to be 199% and the EC50 worked out at 41500 nM.

For the molecule `OCCN1CCN(C2=Nc3ccccc3Oc3ccc(Cl)cc32)CC1` [Compound 4], the results for the Ki in series [1] and in series [2] were 176 nM and 50 nM, respectively. In series [3], this molecule came in with an Emax of 223%. This molecule also gave an EC50 in series [3] of 26000 nM.

With `OCCOCCN1CCN(C2=Nc3ccccc3Sc3ccc(Cl)cc32)CC1` [Compound 5], the Ki in series [1] was found to be 63.4 nM; in series [2] it was 44.9 nM. For the same molecule, in series [3], the Emax was determined as 87.4%. For the same molecule, the half-maximal effective concentration (EC50) in series [3] was 30000 nM.

Turning to `O=C(O)COCCN1CCN(C2=Nc3ccccc3Oc3ccc(C(F)(F)F)cc32)CC1` [Compound 7], the Ki in series [1] is 40.7 nM. In series [2], this molecule showed a Ki of 27.4 nM. In series [3], this molecule showed an Emax of 177% and an EC50 of 62500 nM. For the same molecule, in series [5], the metabolic stability entry is on record as “highest metabolic stabilities”.

`O=C(O)COCCN1CCCN(C2=Nc3ccccc3Oc3ccc(C(F)(F)F)cc32)CC1` [Compound 8] registered a Ki in series [1] of 421 nM. For the same molecule, in series [2], the affinity, expressed as Ki, was 134 nM. In addition, in series [3], the maximal response (Emax) stood at 186% and the EC50 was determined as 50900 nM.

Consider `CN1CC[C@]23c4c5ccc(O)c4O[C@H]2[C@@H](O)C=C[C@H]3[C@H]1C5` [morphine, morphine sulfate pentahydrate, reference compound], for which, in series [6], the breath rate result is recorded as “reduced” and the heart rate result is “reduced”.
